Like-named read-outs stand apart in the source and are kept apart here.
Legend:
[1] = system: HCT116 homozygous MTAP knockout cells; assay: Proliferation assay (CellTiter-Glo, 10 days) in HCT116 homozygous MTAP knockout cells; type: cell-based; details: CellTiter-Glo after 10 days of treatment, read-out: Proliferation IC50 (nM) HCT116 MTAP_KO
Method in brief: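 MTAP-null HCT116 clone made by CRISPR/Cas9 knockout of both alleles, tested beside parental cells. Cells dosed the day after seeding, split 1:10 on day 6 into fresh medium with the same compound level, and read on day 11 by CellTiter-Glo. IC50 taken after 10 days of exposure.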

PRMT5/MEP50 complex = biological target: T1, PRMT5/MEP50 complex (Homo sapiens, UniProt O14744); assay: PRMT5:MEP50 HotSpot Assay (full-length histone H2A substrate, plus and minus MTA); type: biochemical; details: IC50 + 2 μM MTA, in the presence of 2 μM MTA
T1 construct: purchased Reaction Biology Corporation
T1 sequence (O14744 2-637 limits assumed): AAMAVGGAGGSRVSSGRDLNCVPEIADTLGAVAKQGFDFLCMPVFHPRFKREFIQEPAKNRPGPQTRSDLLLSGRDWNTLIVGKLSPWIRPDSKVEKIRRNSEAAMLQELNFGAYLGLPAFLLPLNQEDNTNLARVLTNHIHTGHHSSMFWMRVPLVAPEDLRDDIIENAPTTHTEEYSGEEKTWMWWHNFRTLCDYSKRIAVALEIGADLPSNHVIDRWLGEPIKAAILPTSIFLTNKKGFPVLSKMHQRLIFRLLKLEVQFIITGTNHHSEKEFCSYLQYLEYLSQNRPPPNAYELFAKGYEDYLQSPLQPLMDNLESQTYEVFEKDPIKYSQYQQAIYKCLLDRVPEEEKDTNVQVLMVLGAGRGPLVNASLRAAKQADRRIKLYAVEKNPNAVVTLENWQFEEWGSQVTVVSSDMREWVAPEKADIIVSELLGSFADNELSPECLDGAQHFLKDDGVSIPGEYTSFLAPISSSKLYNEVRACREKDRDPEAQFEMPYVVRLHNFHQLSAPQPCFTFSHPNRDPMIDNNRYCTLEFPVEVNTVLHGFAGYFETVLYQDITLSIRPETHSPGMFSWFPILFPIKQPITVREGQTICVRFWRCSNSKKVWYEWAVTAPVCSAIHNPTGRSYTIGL
T1 sequence (Q9BQA1 2-342 partner limits assumed): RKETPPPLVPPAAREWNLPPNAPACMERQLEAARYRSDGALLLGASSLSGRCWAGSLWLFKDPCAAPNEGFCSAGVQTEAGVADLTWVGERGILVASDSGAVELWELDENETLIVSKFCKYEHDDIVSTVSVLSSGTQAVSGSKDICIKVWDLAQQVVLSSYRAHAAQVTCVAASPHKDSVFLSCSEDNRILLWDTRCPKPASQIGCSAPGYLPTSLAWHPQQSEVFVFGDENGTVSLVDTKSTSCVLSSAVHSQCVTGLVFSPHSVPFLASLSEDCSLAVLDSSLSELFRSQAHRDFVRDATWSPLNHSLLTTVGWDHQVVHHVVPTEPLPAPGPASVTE
Method in brief: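 Radiometric HotSpot format using recombinant full-length histone H2A as substrate, run with and without MTA. Reactions were stopped and spotted onto filter paper. Tritiated H2A was quantified by scintillation counting.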

SMILES | IC50 [1] [nM] | IC50 (PRMT5/MEP50 complex) [nM] | IC50 ([1]; Homo sapiens, HCT-116, 240 h) [nM]
CCOc1cc(-c2cnn(C)c2-c2c(F)c(C)cc(OC3CC3)c2C#N)cc2c(CN)n[nH]c(=O)c12 (single isomer, unassigned) [Example 16-75, (P)-2-[4-[4-(aminomethyl)-8-ethoxy-1-oxo-2H-phthalazin-6-yl]-2-methyl-pyrazol-3-yl]-6-(cyclopropoxy)-3-fluoro-4-methyl-benzonitrile] | 420 | 5030 | –
CCOc1cc(-c2cnn(C)c2-c2c(F)c(C)cc(OC3CC3)c2C#N)cc2c(CN)n[nH]c(=O)c12 (single isomer, unassigned) [Example 16-76, (M)-2-[4-[4-(aminomethyl)-8-ethoxy-1-oxo-2H-phthalazin-6-yl]-2-methyl-pyrazol-3-yl]-6-(cyclopropoxy)-3-fluoro-4-methyl-benzonitrile] | 41 | 111 | –
CCOc1cc(-c2cnn(C)c2-c2c(F)c(Cl)cc(OC3CC3)c2C#N)cc2c(CN)n[nH]c(=O)c12 (single isomer, unassigned) [Example 16-77, (P)-2-[4-[4-(aminomethyl)-8-ethoxy-1-oxo-2H-phthalazin-6-yl]-2-methyl-pyrazol-3-yl]-4-chloro-6-(cyclopropoxy)-3-fluoro-benzonitrile] | 264 | 4100 | –
CCOc1cc(-c2cnn(C)c2-c2c(F)c(Cl)cc(OC3CC3)c2C#N)cc2c(CN)n[nH]c(=O)c12 (single isomer, unassigned) [Example 16-78, (M)-2-[4-[4-(aminomethyl)-8-ethoxy-1-oxo-2H-phthalazin-6-yl]-2-methyl-pyrazol-3-yl]-4-chloro-6-(cyclopropoxy)-3-fluoro-benzonitrile] | 17 | 139 | –
CCOc1cc(-c2cnn(C)c2-c2c(F)c(Cl)c3ccccc3c2C#N)cc2c(CN)n[nH]c(=O)c12 (single isomer, unassigned) [Example 16-79, (P)-2-[4-[4-(aminomethyl)-8-ethoxy-1-oxo-2H-phthalazin-6-yl]-2-methyl-pyrazol-3-yl]-4-chloro-3-fluoro-naphthalene-1-carbonitrile] | 33 | 8.25 | –
CCOc1cc(-c2cnn(C)c2-c2c(F)c(Cl)c3ccccc3c2C#N)cc2c(CN)n[nH]c(=O)c12 (single isomer, unassigned) [Example 16-80, (M)-2-[4-[4-(aminomethyl)-8-ethoxy-1-oxo-2H-phthalazin-6-yl]-2-methyl-pyrazol-3-yl]-4-chloro-3-fluoro-naphthalene-1-carbonitrile] | 13 | 415 | –
CCOc1cc(-c2cnn(C)c2-c2c(F)c(C)c3ccccc3c2C#N)cc2c(CN)n[nH]c(=O)c12 (single isomer, unassigned) [Example 16-81, (P)-2-[4-[4-(aminomethyl)-8-ethoxy-1-oxo-2H-phthalazin-6-yl]-2-methyl-pyrazol-3-yl]-3-fluoro-4-methyl-naphthalene-1-carbonitrile] | – | 42.1 | 9
CCOc1cc(-c2cnn(C)c2-c2c(F)c(C)c3ccccc3c2C#N)cc2c(CN)n[nH]c(=O)c12 (single isomer, unassigned) [Example 16-82, (M)-2-[4-[4-(aminomethyl)-8-ethoxy-1-oxo-2H-phthalazin-6-yl]-2-methyl-pyrazol-3-yl]-3-fluoro-4-methyl-naphthalene-1-carbonitrile] | 14 | 1180 | –
Cn1ncc(-c2ccc3c(=O)[nH]nc(CN)c3c2)c1-c1c(F)cc2c(c1C#N)OCCO2 (single isomer, unassigned) [Example 16-89, (P)-6-[4-[4-(aminomethyl)-1-oxo-2H-phthalazin-6-yl]-2-methyl-pyrazol-3-yl]-7-fluoro-2,3-dihydro-1,4-benzodioxine-5-carbonitrile] | 514 | 1360 | –
Cn1ncc(-c2ccc3c(=O)[nH]nc(CN)c3c2)c1-c1c(F)cc2c(c1C#N)OCCO2 (single isomer, unassigned) [Example 16-90, (M)-6-[4-[4-(aminomethyl)-1-oxo-2H-phthalazin-6-yl]-2-methyl-pyrazol-3-yl]-7-fluoro-2,3-dihydro-1,4-benzodioxine-5-carbonitrile] | 138 | 248 | –
Cn1ncc(-c2ccc3c(=O)[nH]nc(CN)c3c2)c1-c1c(C#N)cc2ncccc2c1F (single isomer, unassigned) [Example 16-91, (P)-6-[4-[4-(aminomethyl)-1-oxo-2H-phthalazin-6-yl]-2-methyl-pyrazol-3-yl]-5-fluoro-quinoline-7-carbonitrile] | 2670 | 454 | –
Cn1ncc(-c2ccc3c(=O)[nH]nc(CN)c3c2)c1-c1c(C#N)cc2ncccc2c1F (single isomer, unassigned) [Example 16-92, (M)-6-[4-[4-(aminomethyl)-1-oxo-2H-phthalazin-6-yl]-2-methyl-pyrazol-3-yl]-5-fluoro-quinoline-7-carbonitrile] | 403 | 2040 | –
Cc1c(F)c(-c2c(-c3cc(C)c4c(=O)[nH]nc(CN)c4c3)cnn2C)c(C#N)c2ncc(Cl)cc12 (single isomer, unassigned) [Example 16-95, (P)-7-(4-(4-(aminomethyl)-8-methyl-1-oxo-1,2-dihydrophthalazin-6-yl)-1-methyl-1H-pyrazol-5-yl)-3-chloro-6-fluoro-5-methylquinoline-8-carbonitrile] | – | 800 | 1230
CCOc1cc(-c2cnn(C)c2-c2c(F)c(C)c3cc(Cl)cnc3c2C#N)cc2c(CN)n[nH]c(=O)c12 (single isomer, unassigned) [Example 16-99, (P)-7-(4-(4-(aminomethyl)-8-ethoxy-1-oxo-1,2-dihydrophthalazin-6-yl)-1-methyl-1H-pyrazol-5-yl)-3-chloro-6-fluoro-5-methylquinoline-8-carbonitrile] | – | 9870 | 10000
Cc1cc(-c2c(-c3ccc4c(=O)[nH]nc(CN)c4c3)cnn2C)n2c1CCCC2=O [Example 4-257, 4-(aminomethyl)-6-[1-methyl-5-(1-methyl-5-oxo-7,8-dihydro-6H-indolizin-3-yl)pyrazol-4-yl]-2H-phthalazin-1-one] | – | 547 | 618
Cn1ncc(-c2ccc3c(=O)[nH]nc(CN)c3c2)c1-c1ccc2n1C(=O)CC2 [Example 4-260, 4-(aminomethyl)-6-[1-methyl-5-(5-oxo-6,7-dihydropyrrolizin-3-yl)pyrazol-4-yl]-2H-phthalazin-1-one] | – | 575 | 2680
Cn1ncc(-c2ccc3c(=O)[nH]nc(CN)c3c2)c1-c1sc2ncc(Cl)cc2c1C#N [Example 4-263, 2-[4-[4-(aminomethyl)-1-oxo-2H-phthalazin-6-yl]-2-methyl-pyrazol-3-yl]-5-chloro-thieno[2,3-b]pyridine-3-carbonitrile] | – | 119 | 132
COc1cccc2c(C#N)c(-c3c(-c4ccc5c(=O)[nH]nc(CN)c5c4)cnn3C)sc12 [Example 4-268, 2-[4-[4-(aminomethyl)-1-oxo-2H-phthalazin-6-yl]-2-methyl-pyrazol-3-yl]-7-methoxy-benzothiophene-3-carbonitrile] | – | 165 | 201
Cn1ncc(-c2ccc3c(=O)[nH]nc(CN)c3c2)c1-c1sc2c(OCC(F)F)cccc2c1C#N [Example 4-269, 2-(4-(4-(aminomethyl)-1-oxo-1,2-dihydrophthalazin-6-yl)-1-methyl-1H-pyrazol-5-yl)-7-(2,2-difluoroethoxy)benzo[b]thiophene-3-carbonitrile] | – | 58.2 | 182
Cn1ncc(-c2ccc3c(=O)[nH]nc(CN)c3c2)c1-c1sc2cc(Cl)ccc2c1C#N [Example 4-270, 2-(4-(4-(aminomethyl)-1-oxo-1,2-dihydrophthalazin-6-yl)-1-methyl-1H-pyrazol-5-yl)-6-chlorobenzo-[b]thiophene-3-carbonitrile] | – | 102 | 400
Cn1ncc(-c2ccc3c(=O)[nH]nc(CN)c3c2)c1-c1sc2cnccc2c1C#N [Example 4-273, 2-[4-[4-(aminomethyl)-1-oxo-2H-phthalazin-6-yl]-2-methyl-pyrazol-3-yl]thieno[2,3-c]pyridine-3-carbonitrile] | – | 376 | 1440
Cn1ncc(-c2ccc3c(=O)[nH]nc(CN)c3c2)c1-c1sc2ccncc2c1C#N [Example 4-274, 2-[4-[4-(aminomethyl)-1-oxo-2H-phthalazin-6-yl]-2-methyl-pyrazol-3-yl]thieno[3,2-c]pyridine-3-carbonitrile] | – | 1070 | 3380
Cc1sc(-c2c(-c3ccc4c(=O)[nH]nc(CN)c4c3)cnn2C)c(C#N)c1OC1CC1 [Example 4-276, 2-(4-(4-(aminomethyl)-1-oxo-1,2-dihydrophthalazin-6-yl)-1-methyl-1H-pyrazol-5-yl)-4-cyclopropoxy-5-methylthiophene-3-carbonitrile] | – | 222 | 198
Cn1ncc(-c2ccc3c(=O)[nH]nc(C4(N)CC4)c3c2)c1-c1sc2ccccc2c1C#N [Example 9-8, 2-(4-(4-(1-aminocyclopropyl)-1-oxo-1,2-dihydrophthalazin-6-yl)-1-methyl-1H-pyrazol-5-yl)benzo[b]thiophene-3-carbonitrile] | – | > 10000 | 10000
Cn1ncc(-c2ccc3c(=O)[nH]nc(C4(N)CCC4)c3c2)c1-c1sc2ccccc2c1C#N [Example 9-10, 2-(4-(4-(1-aminocyclobutyl)-1-oxo-1,2-dihydrophthalazin-6-yl)-1-methyl-1H-pyrazol-5-yl) benzo[b]thiophene-3-carbonitrile] | – | > 10000 | 10000

From patent US20240208912A1 (Mirati Therapeutics, Inc., priority 2021, published 2024)
